Source: patent EP0080071A2, “2-Imidazolylmethyl-2-phenyl-1,3-dioxolanes, process for their preparation and their use as fungicides” (BAYER AG, priority 1981, dated 1983)

Tests used:
[1] = tested on: Podosphaera leucotricha; test: Podosphaera test (apple) / protective; type: in vivo; details: protective spray on young apple plants; evaluation 9 days after inoculation; compared with the prior-art comparison substances
Excerpt: Podosphaera-Test (Apfel) / protektiv
• Lösungsmittel: 4,7 Gewichtsteile Aceton • Emulgator: 0,3 Gewichtsteile Alkylarylpolyglykolether
Zur Herstellung einer zweckmäßigen Wirkstoffzubereitung vermischt man 1 Gewichtsteil Wirkstoff mit den angegebenen Mengen Lösungsmittel und Emulgator und verdünnt das Konzentrat mit Wasser auf die gewünschte Konzentration.
Zur Prüfung auf protektive Wirksamkeit bespritzt man jungePflanzen mit der Wirkstoffzubereitung bis zur Tropfnässe. Nach Antrocknen des Spritzbelages werden die Pflanzen durch Bestäuben mit Konidien des Apfelmehltauerregers (Podosphaera leucotricha) inokuliert.
Die Pflanzen werden dann im Gewächshaus bei 23°C und einer relativen Luftfeuchtigkeit von ca. 70 % aufgestellt.
9 Tage nach der Inokulation erfolgt die Auswertung.

[2] = tested on: Drechslera graminea (syn. Helminthosporium gramineum); test: Drechslera graminea test (barley) / seed treatment; type: in vivo; details: dry seed dressing of infected barley seed; evaluation for stripe disease symptoms ca. 3 weeks after sowing; compared with the prior-art comparison substances
Excerpt: Drechslera graminea-Test (Gerste) / Saatgutbehandlung (syn. Helminthosporium gramineum)
Die Anwendung der Wirkstoffe erfolgt als Trockenbeizmittel. Sie werden zubereitet durch Abstrecken des jeweiligen Wirkstoffes mit Gesteinsmehl zu einer feinpulvrigen Mischung, die eine gleichmäßige Verteilung auf der Saatgutoberfläche gewährleistet.
Zur Beizung schüttelt man das infizierte Saatgut 3 Minuten lang mit dem Beizmittel in einer verschlossenen Glasflasche.
Das Saatgut setzt man in gesiebter, feuchter Standarderde eingebettet, in verschlossenen Petrischalen im Kühlschrank 10 Tage lang einer Temperatur von 4°C aus. Dabei wird die Keimung der Gerste und gegebenenfalls auch der Pilzsporen eingeleitet. Anschließend sät man die vorgekeimte Gerste mit 2 x 50 Korn 3 cm tief in eine Standarderde und kultiviert sie im Gewächshaus bei einer Temperatur von ca. 18°C in Saatkästen, die täglich 15 Stunden dem Licht ausgesetzt werden.
Ca. 3 Wochen nach der Aussaat erfolgt die Auswertung der Pflanzen auf Symptome der Streifenkrankheit.

What does the source list for Cl.FC(F)(F)c1cc(Cl)ccc1C1(Cn2ccnc2)OCCO1 [Beispiel 1, 2-(4-Chlor-2-trifluormethyl)-phenyl-2-(imidazol-1-yl)-methyl-1,3-dioxolan-hydrochlorid]?
Wirksamkeit [1]: deutliche Überlegenheit in der Wirksamkeit gegenüber dem Stand der Technik; Wirksamkeit [2]: deutliche überlegenheit in der Wirksamkeit gegenüber dem Stand der Technik
